Assay results reported in ChEMBL document CHEMBL5653631, “A Potent and Selective ULK1 Inhibitor Suppresses Autophagy and Sensitizes Cancer Cells to Nutrient Stress” (iScience, 2018).
Each block holds one molecule with its values, some of them ahead of it.

Columns and labels:
[1] = biological target: Serine/threonine-protein kinase 35 (Homo sapiens) (UniProt Q8TDR2); assay: Inhibition of human recombinant CLIK1 at 500 nM in presence of ATP by radiometric assay relative to control
[2] = biological target: T1, Myosin-IIIb (Homo sapiens) (UniProt Q8WXR4); assay: Inhibition of human recombinant MYO3B at 500 nM in presence of ATP by radiometric assay relative to control
T1 sequence (whole entry): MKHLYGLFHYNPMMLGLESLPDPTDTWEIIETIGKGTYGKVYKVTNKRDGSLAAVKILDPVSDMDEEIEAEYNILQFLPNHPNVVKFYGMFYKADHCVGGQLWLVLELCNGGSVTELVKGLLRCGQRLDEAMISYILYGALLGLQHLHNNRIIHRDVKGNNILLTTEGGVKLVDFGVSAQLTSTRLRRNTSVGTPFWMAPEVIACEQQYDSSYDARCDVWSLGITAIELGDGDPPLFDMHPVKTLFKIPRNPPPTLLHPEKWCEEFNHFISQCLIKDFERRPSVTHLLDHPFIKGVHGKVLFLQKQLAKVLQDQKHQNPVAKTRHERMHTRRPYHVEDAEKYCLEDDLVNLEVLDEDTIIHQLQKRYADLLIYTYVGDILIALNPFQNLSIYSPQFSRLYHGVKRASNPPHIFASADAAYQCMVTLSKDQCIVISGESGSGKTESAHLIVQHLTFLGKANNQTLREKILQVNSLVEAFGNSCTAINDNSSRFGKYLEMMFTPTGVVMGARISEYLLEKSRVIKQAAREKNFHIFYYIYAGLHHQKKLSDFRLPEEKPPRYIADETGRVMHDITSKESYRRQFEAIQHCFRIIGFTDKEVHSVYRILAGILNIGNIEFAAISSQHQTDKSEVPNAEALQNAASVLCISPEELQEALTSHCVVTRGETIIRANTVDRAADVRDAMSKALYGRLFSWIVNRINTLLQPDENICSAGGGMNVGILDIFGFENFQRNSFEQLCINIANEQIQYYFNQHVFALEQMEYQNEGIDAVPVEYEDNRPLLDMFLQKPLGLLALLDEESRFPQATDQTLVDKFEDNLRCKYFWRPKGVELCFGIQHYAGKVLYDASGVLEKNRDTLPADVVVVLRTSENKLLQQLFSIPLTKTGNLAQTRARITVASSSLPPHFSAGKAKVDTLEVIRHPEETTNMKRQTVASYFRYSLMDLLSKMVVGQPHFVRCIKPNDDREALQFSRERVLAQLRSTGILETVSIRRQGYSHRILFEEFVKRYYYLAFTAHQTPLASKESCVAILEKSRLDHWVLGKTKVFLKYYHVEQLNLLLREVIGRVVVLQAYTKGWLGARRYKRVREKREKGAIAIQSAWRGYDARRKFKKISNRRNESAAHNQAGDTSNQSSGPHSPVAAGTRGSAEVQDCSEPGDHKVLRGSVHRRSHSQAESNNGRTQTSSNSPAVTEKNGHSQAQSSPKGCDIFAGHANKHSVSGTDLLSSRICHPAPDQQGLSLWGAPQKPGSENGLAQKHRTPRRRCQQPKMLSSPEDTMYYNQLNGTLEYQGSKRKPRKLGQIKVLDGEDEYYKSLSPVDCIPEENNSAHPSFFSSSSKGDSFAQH

[3] = biological target: T2, Serine/threonine-protein kinase Nek1 (Homo sapiens) (UniProt Q96PY6); assay: Inhibition of human recombinant NEK1 at 500 nM in presence of ATP by radiometric assay relative to control
T2 sequence (whole entry): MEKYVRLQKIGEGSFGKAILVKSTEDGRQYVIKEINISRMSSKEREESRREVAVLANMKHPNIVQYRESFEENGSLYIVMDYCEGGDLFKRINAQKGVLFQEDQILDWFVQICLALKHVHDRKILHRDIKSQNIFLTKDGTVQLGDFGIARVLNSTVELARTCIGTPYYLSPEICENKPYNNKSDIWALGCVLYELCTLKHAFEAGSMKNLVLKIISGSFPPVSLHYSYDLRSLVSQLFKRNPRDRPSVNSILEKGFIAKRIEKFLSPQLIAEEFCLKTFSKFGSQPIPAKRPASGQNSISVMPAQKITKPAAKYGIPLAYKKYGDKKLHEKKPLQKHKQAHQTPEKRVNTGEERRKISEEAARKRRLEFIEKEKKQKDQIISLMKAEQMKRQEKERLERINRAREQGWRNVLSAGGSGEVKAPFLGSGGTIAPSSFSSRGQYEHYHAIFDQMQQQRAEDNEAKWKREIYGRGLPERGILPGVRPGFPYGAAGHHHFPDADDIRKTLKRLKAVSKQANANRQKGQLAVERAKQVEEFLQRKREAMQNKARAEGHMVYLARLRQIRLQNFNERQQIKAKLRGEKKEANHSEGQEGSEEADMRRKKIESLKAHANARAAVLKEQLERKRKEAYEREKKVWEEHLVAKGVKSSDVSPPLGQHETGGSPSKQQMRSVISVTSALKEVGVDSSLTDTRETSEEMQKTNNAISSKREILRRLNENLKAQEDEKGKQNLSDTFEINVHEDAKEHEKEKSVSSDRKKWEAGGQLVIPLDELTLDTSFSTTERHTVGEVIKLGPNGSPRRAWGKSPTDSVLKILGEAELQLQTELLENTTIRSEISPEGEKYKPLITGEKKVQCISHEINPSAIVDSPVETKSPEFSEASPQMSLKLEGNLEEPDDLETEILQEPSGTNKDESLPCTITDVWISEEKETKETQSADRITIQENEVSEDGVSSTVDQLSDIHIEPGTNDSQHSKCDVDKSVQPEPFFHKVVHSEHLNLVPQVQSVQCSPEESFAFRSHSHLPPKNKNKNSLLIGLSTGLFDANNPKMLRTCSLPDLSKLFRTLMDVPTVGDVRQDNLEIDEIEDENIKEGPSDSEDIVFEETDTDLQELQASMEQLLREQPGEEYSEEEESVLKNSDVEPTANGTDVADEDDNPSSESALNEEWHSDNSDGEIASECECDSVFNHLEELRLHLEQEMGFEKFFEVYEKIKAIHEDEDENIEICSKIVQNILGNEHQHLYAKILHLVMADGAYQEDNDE

[4] = biological target: Serine/threonine-protein kinase PLK2 (Homo sapiens) (UniProt Q9NYY3); assay: Inhibition of human recombinant PLK2 at 40 nM related to control ULK1
Serine/threonine-protein kinase PLK2 (Homo sapiens), sequence (Q9NYY3 whole entry, looked up): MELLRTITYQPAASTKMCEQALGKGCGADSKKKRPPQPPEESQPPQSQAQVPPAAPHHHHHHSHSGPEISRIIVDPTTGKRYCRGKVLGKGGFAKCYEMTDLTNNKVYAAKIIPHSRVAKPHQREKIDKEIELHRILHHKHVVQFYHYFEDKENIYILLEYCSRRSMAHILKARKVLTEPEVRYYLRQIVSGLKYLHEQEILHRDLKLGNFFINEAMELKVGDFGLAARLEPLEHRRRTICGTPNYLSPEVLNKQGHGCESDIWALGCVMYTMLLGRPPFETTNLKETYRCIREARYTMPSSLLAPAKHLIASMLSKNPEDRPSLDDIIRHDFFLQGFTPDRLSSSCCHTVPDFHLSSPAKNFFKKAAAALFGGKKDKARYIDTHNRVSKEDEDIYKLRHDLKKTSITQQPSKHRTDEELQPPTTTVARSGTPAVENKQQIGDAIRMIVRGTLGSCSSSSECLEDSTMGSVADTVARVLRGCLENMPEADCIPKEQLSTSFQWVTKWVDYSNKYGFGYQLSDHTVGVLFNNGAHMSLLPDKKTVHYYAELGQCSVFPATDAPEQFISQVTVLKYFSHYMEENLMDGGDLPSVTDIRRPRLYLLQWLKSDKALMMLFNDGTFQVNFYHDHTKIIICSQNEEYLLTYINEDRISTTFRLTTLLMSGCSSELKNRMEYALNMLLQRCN

[5] = biological target: Epidermal growth factor receptor (Homo sapiens) (UniProt P00533); assay: Inhibition of human recombinant EGFR at 40 nM in presence of ATP by radiometric assay relative to control
Epidermal growth factor receptor (Homo sapiens), sequence (P00533 whole entry): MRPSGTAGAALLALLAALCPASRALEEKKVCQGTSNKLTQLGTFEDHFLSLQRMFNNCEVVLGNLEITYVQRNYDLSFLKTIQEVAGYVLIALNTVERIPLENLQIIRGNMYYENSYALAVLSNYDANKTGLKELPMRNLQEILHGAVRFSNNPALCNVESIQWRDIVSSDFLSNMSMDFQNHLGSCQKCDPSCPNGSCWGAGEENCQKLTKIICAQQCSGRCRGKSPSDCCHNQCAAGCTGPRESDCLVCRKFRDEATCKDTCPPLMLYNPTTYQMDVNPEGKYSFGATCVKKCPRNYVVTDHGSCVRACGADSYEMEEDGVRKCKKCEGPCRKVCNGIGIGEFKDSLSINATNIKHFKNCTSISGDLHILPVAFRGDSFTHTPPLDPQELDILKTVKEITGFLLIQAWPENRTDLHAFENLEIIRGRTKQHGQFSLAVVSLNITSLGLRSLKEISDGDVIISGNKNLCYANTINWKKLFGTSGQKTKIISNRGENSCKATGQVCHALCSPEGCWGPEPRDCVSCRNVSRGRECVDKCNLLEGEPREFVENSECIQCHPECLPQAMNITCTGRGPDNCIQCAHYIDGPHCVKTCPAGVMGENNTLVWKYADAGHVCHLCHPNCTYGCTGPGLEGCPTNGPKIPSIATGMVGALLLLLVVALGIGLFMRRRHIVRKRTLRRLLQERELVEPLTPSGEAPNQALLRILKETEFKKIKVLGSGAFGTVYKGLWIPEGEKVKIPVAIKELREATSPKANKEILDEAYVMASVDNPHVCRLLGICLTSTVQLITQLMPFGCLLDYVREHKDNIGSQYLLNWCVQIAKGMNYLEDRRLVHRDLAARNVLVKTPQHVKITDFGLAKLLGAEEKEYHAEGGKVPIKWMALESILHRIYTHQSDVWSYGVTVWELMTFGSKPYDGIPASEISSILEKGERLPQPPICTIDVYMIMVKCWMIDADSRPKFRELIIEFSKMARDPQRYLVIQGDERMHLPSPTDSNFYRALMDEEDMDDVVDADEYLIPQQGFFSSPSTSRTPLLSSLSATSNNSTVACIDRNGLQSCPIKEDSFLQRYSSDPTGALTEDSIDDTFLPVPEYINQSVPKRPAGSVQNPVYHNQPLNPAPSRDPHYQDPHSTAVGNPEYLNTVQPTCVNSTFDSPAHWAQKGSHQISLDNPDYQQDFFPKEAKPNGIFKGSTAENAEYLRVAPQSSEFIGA

Homo sapiens = organism: Homo sapiens; assay: Inhibition of human recombinant KHS1 at 40 nM related to control ULK1
[6] = biological target: Protein kinase C theta type (Homo sapiens) (UniProt Q04759); assay: Inhibition of human recombinant PKCt at 15 nM related to control ULK1
Protein kinase C theta type (Homo sapiens), sequence (Q04759 whole entry, looked up): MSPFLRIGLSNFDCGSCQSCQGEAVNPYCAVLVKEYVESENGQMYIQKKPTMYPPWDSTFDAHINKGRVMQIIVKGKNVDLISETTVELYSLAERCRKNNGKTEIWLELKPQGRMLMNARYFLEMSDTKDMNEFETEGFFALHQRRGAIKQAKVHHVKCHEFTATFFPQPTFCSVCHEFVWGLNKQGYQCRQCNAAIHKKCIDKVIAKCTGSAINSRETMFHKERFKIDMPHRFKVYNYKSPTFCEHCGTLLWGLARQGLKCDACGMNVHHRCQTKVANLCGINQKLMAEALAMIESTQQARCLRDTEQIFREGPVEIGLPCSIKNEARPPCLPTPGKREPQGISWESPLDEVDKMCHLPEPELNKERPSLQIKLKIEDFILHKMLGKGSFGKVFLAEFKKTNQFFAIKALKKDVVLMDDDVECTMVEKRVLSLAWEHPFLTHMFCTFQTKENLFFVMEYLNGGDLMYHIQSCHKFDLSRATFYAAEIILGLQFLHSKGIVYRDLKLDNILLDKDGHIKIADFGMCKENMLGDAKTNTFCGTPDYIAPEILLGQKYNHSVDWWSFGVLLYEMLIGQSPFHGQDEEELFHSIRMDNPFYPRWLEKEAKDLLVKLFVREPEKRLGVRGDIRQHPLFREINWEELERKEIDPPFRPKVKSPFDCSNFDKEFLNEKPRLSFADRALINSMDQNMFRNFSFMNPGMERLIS

[7] = biological target: Tyrosine-protein kinase Fyn (Homo sapiens) (UniProt P06241); assay: Inhibition of human recombinant FYN at 15 nM related to control ULK1
Tyrosine-protein kinase Fyn (Homo sapiens), sequence (P06241 2-537 limits assumed): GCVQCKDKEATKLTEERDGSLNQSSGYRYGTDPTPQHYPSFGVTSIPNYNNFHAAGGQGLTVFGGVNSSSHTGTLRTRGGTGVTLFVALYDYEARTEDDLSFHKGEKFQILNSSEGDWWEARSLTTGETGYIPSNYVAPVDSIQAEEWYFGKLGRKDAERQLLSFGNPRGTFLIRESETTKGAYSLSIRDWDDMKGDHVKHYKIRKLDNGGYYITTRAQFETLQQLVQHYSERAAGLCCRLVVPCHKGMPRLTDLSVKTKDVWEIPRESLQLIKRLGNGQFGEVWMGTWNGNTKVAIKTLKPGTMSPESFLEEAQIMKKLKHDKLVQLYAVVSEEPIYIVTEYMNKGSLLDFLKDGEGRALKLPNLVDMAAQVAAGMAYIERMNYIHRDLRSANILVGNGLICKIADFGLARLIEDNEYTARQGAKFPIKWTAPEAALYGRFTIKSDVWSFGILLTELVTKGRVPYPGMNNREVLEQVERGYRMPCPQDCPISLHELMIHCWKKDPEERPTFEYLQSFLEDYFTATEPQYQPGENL

Serine/threonine-protein kinase 35 (Homo sapiens), sequence (Q8TDR2 whole entry): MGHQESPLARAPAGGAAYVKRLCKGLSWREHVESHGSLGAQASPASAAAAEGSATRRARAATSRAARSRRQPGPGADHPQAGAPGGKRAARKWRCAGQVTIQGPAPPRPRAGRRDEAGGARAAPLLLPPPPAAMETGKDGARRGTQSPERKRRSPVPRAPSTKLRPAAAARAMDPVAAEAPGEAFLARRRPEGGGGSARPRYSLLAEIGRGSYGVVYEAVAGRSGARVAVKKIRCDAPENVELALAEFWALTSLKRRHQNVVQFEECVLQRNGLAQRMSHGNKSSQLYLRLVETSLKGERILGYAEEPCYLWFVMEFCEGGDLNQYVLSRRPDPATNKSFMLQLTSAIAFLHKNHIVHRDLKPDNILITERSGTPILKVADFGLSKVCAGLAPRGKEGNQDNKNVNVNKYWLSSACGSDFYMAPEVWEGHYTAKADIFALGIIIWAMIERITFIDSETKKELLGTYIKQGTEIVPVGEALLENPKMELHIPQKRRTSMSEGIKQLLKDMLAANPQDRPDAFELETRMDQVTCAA

inhibition [1]: 3% | inhibition [2]: 11% | inhibition [3]: 8%
Structure (SMILES): CNC(=O)c1ccccc1Oc1nc(Nc2cc(OC)c(OC)c(OC)c2)ncc1Br

fold change (FC) [4]: 0.04 | inhibition [5]: 0% | fold change (FC) (Homo sapiens): 0
Structure (SMILES): O=C(N[C@@H](C1CC1)C(F)(F)F)c1cc(-c2cnn3cc(-c4ccc(F)cc4)cnc23)cs1

fold change (FC) [6]: 0 | fold change (FC) [7]: 0.18
Structure (SMILES): CC(C)[C@H](NC(=O)c1cc(-c2cnn3cc(-c4ccc(OCCN5CCCCC5)cc4)cnc23)cs1)C(F)(F)F
